Read-outs that look alike come from different tables or passages of the source.
How the values were obtained:
[1] = set-up: species or system cattle; conditions: bovine, in vivo
Description: For cattle, the same three-compartment model was used as described herein. With respect to sheep, the model differs from that shown in FIG. 1 in that de novo production of 3-methylhistidine is shown in compartment 2 and additionally, exit from compartment 3 occurs as well as from compartment 1 into urine. With respect to swine, again, de novo production of 3-methylhistidine is shown in compartment 2, and exit to urine is from compartment 3.
Urinary 3-methylhistidine may be used in cattle and humans as an index of muscle protein breakdown but is invalid for use in pigs and lambs. […] Previously, in validating urinary 3-methylhistidineas an index of muscle proteolysis, researchers have injected ^14 C-3-methylhistidine intravenously and recovered the tracer in urine but have never described its decay in plasma. In constructing the 3-compartment model, we kept in mind known physiology of 3-methylhistidine. It has been established that there are pools of 3-methylhistidine in plasma, in other extracellular fluid pools, within muscle and in other tissues. […] Based on comparison of fits, a 3-compartment model was the best model to describe the metabolism of 3-methylhistidine; however, 2- and 4-compartment models as well as other configurations were also evaluated. […]

[2] = set-up: species or system human; conditions: in vivo
Procedure: Each study was four days in duration. Starting at t=0 (8.00 hours), subjects were administered a bolus infusion of L-3-[methyl^2 H3 ]-histidine (D3 -3-methylhistidine) at 0.13 μmol/kg into the forearm vein of the dominant arm. The infusate was passed through a Millex-GS sterilizing filter (0.22 μm; Millipore Products Divisions, Bedford, Mass.) before the infusion. Blood samples were obtained from the superficial hand vein and from the deep forearm vein at 0, 1, 2, 5, 10, 15, 30, 45, 90, 150, 210, 270, 330, and 720 min. postinjection. During this time, the subjects were required to stay at the Clinical Research Center, although they were allowed to ambulate freely within their rooms. Free access to food and drink was allowed after the 330-min sample. After 720 min, the catheters were removed and the patients were allowed to go home. For the following three days, the subjects returned to the CRC each morning before eating for further blood sampling by percutaneous venous puncture at 1,440, 2,880, and 4,320 min postinjection. Urine was collected over 24 hour periods the day before and for three days after tracer infusion.
Blood was collected in heparinized syringes, transferred to tubes containing Na2 EDTA (15 mg/tube), and centrifuged. The plasma obtained was immediately placed on ice. An aliquot of the plasma was processed for determination of 3-methylhistidine concentration as well as the L-3-[methyl-^2 H3 ]-histidine:3-methylhistidine isotope enrichment. The remainder of the plasma was frozen at -70° C. […] Urinary 3-methylhistidine concentration and production were also measured (Rathmacher, J. A. et al., "Gas chromatographic-mass spectrometric analysis of stable isotopes of 3-methylhistidine in biological fluids: application to plasma kinetics in vivo," Biol. Mass Spectrom. (1992) 21:560-566). […]

[3] = cattle, cited from earlier work
[4] = cited from earlier work
[5] = cited from earlier work; remark: listed apart in the source

- Model 3-methylhistidine production versus urinary production [1]: qualitatively similar
- Model 3-methylhistidine production above urinary estimate [2]: 16%
- Model 3-methylhistidine production versus urinary production [2]: qualitatively similar
- Urinary 3-methylhistidine production versus model estimate [2]: lower than the model estimate
Structure (SMILES): Cn1cnc(C[C@H](N)C(=O)O)c1 [3-methylhistidine]
- L2,1 fractional transfer rate ([3]; comparison): 0.18 min⁻¹
- 3MH Production ([3]; n=36, from model): 6.2 µmol/kg/day
- M1, compartment mass ([3]; n=36): 806 nmol/kg
- M2, compartment mass ([3]; n=36): 2106 nmol/kg
- M3, compartment mass ([3]; n=36): 7803 nmol/kg
- R01 mass transfer rate ([3]; n=36): 4.2 nmol/kg/min
- R12 mass transfer rate ([3]; n=36): 107 nmol/kg/min
- R21 mass transfer rate ([3]; n=36): 103 nmol/kg/min
- R23 mass transfer rate ([3]; n=36): 9.6 nmol/kg/min
- R32 mass transfer rate ([3]; n=36): 5.4 nmol/kg/min
- L0,1 fractional transfer rate ([3]; number 39): .006 min⁻¹
- L1,2 fractional transfer rate ([3]; number 39): .06 min⁻¹
- L2,1 fractional transfer rate ([3]; number 39): .18 min⁻¹
- L2,3 fractional transfer rate ([3]; number 39): .002 min⁻¹
- L3,2 fractional transfer rate ([3]; number 39): .003 min⁻¹
- Urinary 3MH loss ([3]; number 39): 100 % of total
- Urinary excretion ([4]; pigs, retained in muscle as balenine): not quantitatively excreted in urine
- 3-methylhistidine excreted into urine ([4]; swine, of 3-methylhistidine from muscle metabolism): less than 2%
- 3-methylhistidine excretion during exercise ([5]; humans): insignificant increase
- 3-methylhistidine excretion during recovery from exercise ([5]; humans): significant increase
- Urinary excretion ([5]; man): quantitatively excreted in the urine

From patent US5628328A, “Method for measuring muscle mass” (priority 1995, dated 1997)
